Assay results as given in patent US20250289813A1, “CDK INHIBITORS, PHARMACEUTICAL COMPOSITIONS, AND THERAPEUTIC APPLICATIONS” (ONQUALITY PHARMACEUTICALS CHINA LTD., priority 2022, published 2025).
pEC50, pIC50: −log10 of the molar value.

Experiments:
CDK4/cyclin D1 = CDK4/cyclin D1 (Homo sapiens (Human), UniProt P11802); assay: CDK4 Caliper Mobility Shift assay; type: biochemical
Method: (§1) A Caliper Mobility Shift assay was used to determine the inhibitory activities of a compound against CDK4/cyclin D1 and CDK6/cyclin D1 in their respective kinase buffers (CDK4: 20 mM HEPES, pH 7.5, and 0.01% Triton X-100; CDK6: 50 mM HEPES, pH 7.5, and 0.0015% BRIJ-35). The CDK4/cyclin D1 and CDK6/cyclin D1 were obtained from PROQINASE and CARNA, respectively. A FAM-labeled peptide was obtained from GL.
(§2) The compound at predetermined concentrations was pre-incubated with CDK4/cyclin D1 or CDK6/cyclin D1 in a 384-well microplate at room temperature for 10 min. The FAM-labeled peptide and ATP were subsequently added to initiate the kinase reactions. The final enzyme concentrations were 15 nM for CDK4 and 7.5 nM for CDK6. The final ATP concentrations were […] for CDK4 and […] for CDK6. The microplate was allowed to incubate at 28° C. The kinase reactions were stopped by adding a stop buffer (100 mM HEPES, pH 7.5, 0.012% BRIJ-35, 0.2% Coating Reagent 3 (Caliper Life Sciences), and […]). Conversion data were recorded and utilized to calculate the percent inhibition values for each compound and an IC50 value was then determined. The results are summarized in Table 1, where the symbol “***” represents a value no greater than 200 nM, the symbol “**” represents a value greater than 200 nM but no greater than 500 nM, and the symbol “*” represents a value greater than 500 nM.

CDK6/cyclin D1 = CDK6/cyclin D1 (Homo sapiens (Human), UniProt Q00534); assay: CDK6 Caliper Mobility Shift assay; type: biochemical
Sequence of CDK6/cyclin D1 (Q00534 whole entry): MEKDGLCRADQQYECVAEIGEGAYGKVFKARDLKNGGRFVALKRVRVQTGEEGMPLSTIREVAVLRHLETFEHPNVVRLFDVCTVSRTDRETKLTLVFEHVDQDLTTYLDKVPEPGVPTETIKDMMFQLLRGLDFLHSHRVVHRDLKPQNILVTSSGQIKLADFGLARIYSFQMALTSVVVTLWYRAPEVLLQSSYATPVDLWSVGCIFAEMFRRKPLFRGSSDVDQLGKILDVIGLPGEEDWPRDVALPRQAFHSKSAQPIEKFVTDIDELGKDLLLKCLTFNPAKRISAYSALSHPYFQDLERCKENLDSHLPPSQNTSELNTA
Sequence of CDK6/cyclin D1 (P24385 whole entry partner): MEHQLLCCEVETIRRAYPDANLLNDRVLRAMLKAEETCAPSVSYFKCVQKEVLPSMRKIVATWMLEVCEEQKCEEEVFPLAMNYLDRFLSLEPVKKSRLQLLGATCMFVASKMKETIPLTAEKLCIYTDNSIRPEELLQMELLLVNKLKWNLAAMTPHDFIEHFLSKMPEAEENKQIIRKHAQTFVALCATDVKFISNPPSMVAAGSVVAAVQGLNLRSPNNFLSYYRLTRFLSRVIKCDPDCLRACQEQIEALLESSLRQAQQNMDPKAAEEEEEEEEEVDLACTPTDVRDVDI
Method: as §1, §2

[1] = tested on: MCF-7 human breast cancer cells; assay: CELLTITER-GLO luminescent cell viability assay; type: cell-based; conditions: MCF7, 192 h, MCF-7 cells, 8 days, read-out: EC50 (Effect on Cell Viability)
Method: A CELLTITER-GLO luminescent cell viability assay was carried out using MCF-7 human breast cancer cells under the normal growth condition. The MCF-7 human breast cancer cells were grown at 37° C. in a 5% CO2 humidified incubator in EMEM, supplemented 10% FBS, 0.01 mg/mL bovine insulin. The cells were seeded at a 3,000 cells/well in a 96-well tissue culture plate. The cells were allowed to adhere overnight in the incubator. A compound (5 μL) in a medium at a predetermined concentration. After the cells was incubated at 37° C. for 8 days, a CELLTITER-GLO detection solution (100 μL) was added. The cells were mixed on an orbital shaker for 5 min and then incubated for additional 10 min. The plate was read with an ENVISION reader. The results are summarized in Table 2, where the symbol “+++” represents a value no greater than 1 μM, the symbol “++” represents a value greater than 1 μM but no greater than 10 μM, and the symbol “+” represents a value greater than 10 μM.

Sequence of CDK4/cyclin D1 (P11802 whole entry): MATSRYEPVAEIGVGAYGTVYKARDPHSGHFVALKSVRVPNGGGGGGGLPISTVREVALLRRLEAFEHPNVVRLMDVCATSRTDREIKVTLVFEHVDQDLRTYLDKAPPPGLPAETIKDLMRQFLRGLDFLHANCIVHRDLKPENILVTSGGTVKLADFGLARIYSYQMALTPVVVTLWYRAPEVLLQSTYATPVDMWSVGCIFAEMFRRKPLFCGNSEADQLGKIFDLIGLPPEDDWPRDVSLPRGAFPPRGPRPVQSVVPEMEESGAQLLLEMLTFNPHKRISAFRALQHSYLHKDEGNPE
Sequence of CDK4/cyclin D1 (P24385 whole entry partner): as the sequence (P24385 whole entry partner) above

pIC50 (CDK4/cyclin D1)	pIC50 (CDK6/cyclin D1)	pEC50 [1]	SMILES
≥ 6.70	≥ 6.70	5.00 to 6.00	COCCNS(=O)(=O)N1CCN(c2ccc(Nc3ncc4c(C)c(C(C)=O)c(=O)n(C5CCCC5)c4n3)nc2)CC1 [Compound A43, 4-(6-((6-Acetyl-8-cyclopentyl-5-methyl-7-oxo-7,8-dihydropyrido[2,3-d]-pyrimidin-2-yl)amino)pyridin-3-yl)-N-(2-methoxyethyl)piperazine-1-sulfonamide]
≥ 6.70	≥ 6.70	≥ 6.00	CC(=O)c1c(C)c2cnc(Nc3ccc(N4CCN(S(=O)(=O)NC(=O)[C@H]5CCCN5)CC4)cn3)nc2n(C2CCCC2)c1=O [Compound A33, (R)—N-((4-(6-((6-Acetyl-8-cyclopentyl-5-methyl-7-oxo-7,8-dihydropyrido[2,3-d]-pyrimidin-2-yl)amino)pyridin-3-yl)piperazin-1-yl)sulfonyl)pyrrolidine-2-carboxamide]
≥ 6.70	≥ 6.70	5.00 to 6.00	CC(=O)c1c(C)c2cnc(Nc3ccc(N4CCN(S(=O)(=O)N5CC(O)C5)CC4)cn3)nc2n(C2CCCC2)c1=O [Compound A52, 6-Acetyl-8-cyclopentyl-2-((5-(4-((3-hydroxyazetidin-1-yl)sulfonyl)piperazin-1-yl)pyridin-2-yl)amino)-5-methylpyrido[2,3-d]pyrimidin-7(8H)-one]
≥ 6.70	6.30 to 6.70	5.00 to 6.00	CC(=O)c1c(C)c2cnc(Nc3ccc(N4CCN(S(=O)(=O)NC(=O)OC(C)C)CC4)cn3)nc2n(C2CCCC2)c1=O [Compound A27, Isopropyl ((4-(6-((6-acetyl-8-cyclopentyl-5-methyl-7-oxo-7,8-dihydropyrido[2,3-d]pyrimidin-2-yl)amino)pyridin-3-yl)piperazin-1-yl)sulfonyl)carbamate]
≥ 6.70	≥ 6.70	5.00 to 6.00	CC(=O)c1c(C)c2cnc(Nc3ccc(N4CCN(S(=O)(=O)N5CCOCC5)CC4)cn3)nc2n(C2CCCC2)c1=O [Compound A51, 6-Acetyl-8-cyclopentyl-5-methyl-2-((5-(4-(morpholinosulfonyl)piperazin-1-yl)-pyridin-2-yl)amino)pyrido[2,3-d]pyrimidin-7(8H)-one]
≥ 6.70	≥ 6.70	≥ 6.00	CC(=O)c1c(C)c2cnc(Nc3ccc(N4CCN(S(=O)(=O)NC(=O)C(N)C(C)C)CC4)cn3)nc2n(C2CCCC2)c1=O (stereo not drawn) [Compound A30, N-((4-(6-((6-Acetyl-8-cyclopentyl-5-methyl-7-oxo-7,8-dihydropyrido[2,3-d]-pyrimidin-2-yl)amino)pyridin-3-yl)piperazin-1-yl)sulfonyl)-2-amino-3-methylbutanamide]
≥ 6.70	≥ 6.70	5.00 to 6.00	CC(=O)c1c(C)c2cnc(Nc3ccc(N4CCN(S(=O)(=O)OCOC(=O)c5ccccc5)CC4)cn3)nc2n(C2CCCC2)c1=O [Compound B3, (((4-(6-((6-Acetyl-8-cyclopentyl-5-methyl-7-oxo-7,8-dihydropyrido[2,3-d]-pyrimidin-2-yl)amino)pyridin-3-yl)piperazin-1-yl)sulfonyl)oxy)methyl benzoate]
≥ 6.70	≥ 6.70	5.00 to 6.00	COC(=O)NS(=O)(=O)N1CCN(c2ccc(Nc3ncc4c(C)c(C(C)=O)c(=O)n(C5CCCC5)c4n3)nc2)CC1 [Compound A26, Methyl ((4-(6-((6-acetyl-8-cyclopentyl-5-methyl-7-oxo-7,8-dihydropyrido[2,3-d]-pyrimidin-2-yl)amino)pyridin-3-yl)piperazin-1-yl)sulfonyl)carbamate]
≥ 6.70	≥ 6.70	5.00 to 6.00	CC(=O)c1c(C)c2cnc(Nc3ccc(N4CCN(S(=O)(=O)NC(C)C)CC4)cn3)nc2n(C2CCCC2)c1=O [Compound A48, 4-(6-((6-Acetyl-8-cyclopentyl-5-methyl-7-oxo-7,8-dihydropyrido[2,3-d]-pyrimidin-2-yl)amino)pyridin-3-yl)-N-isopropylpiperazine-1-sulfonamide]

Second part, the compound before the results:

SMILES	pIC50 (CDK4/cyclin D1)	pIC50 (CDK6/cyclin D1)	pEC50 [1]
CSCC[C@H](N)C(=O)NCCOC(=O)NS(=O)(=O)N1CCN(c2ccc(Nc3ncc4c(C)c(C(C)=O)c(=O)n(C5CCCC5)c4n3)nc2)CC1 [Compound A19, (S)-2-(2-Amino-4-(methylthio)butanamido)ethyl ((4-(6-((6-acetyl-8-cyclopentyl-5-methyl-7-oxo-7,8-dihydropyrido[2,3-d]pyrimidin-2-yl)amino)pyridin-3-yl)piperazin-1-yl)-sulfonyl)carbamate]	≥ 6.70	≥ 6.70	< 5.00
CC(=O)c1c(C)c2cnc(Nc3ccc(N4CCN(S(=O)(=O)NC(=O)OCCNC(=O)[C@@H](N)CO)CC4)cn3)nc2n(C2CCCC2)c1=O [Compound A18, (S)-2-(2-Amino-3-hydroxypropanamido)ethyl ((4-(6-((6-acetyl-8-cyclopentyl-5-methyl-7-oxo-7,8-dihydropyrido[2,3-d]pyrimidin-2-yl)amino)pyridin-3-yl)piperazin-1-yl)-sulfonyl)carbamate]	≥ 6.70	≥ 6.70	< 5.00
CC(=O)c1c(C)c2cnc(Nc3ccc(N4CCN(S(=O)(=O)NC(=O)OC5CC5)CC4)cn3)nc2n(C2CCCC2)c1=O [Compound A24, Cyclopropyl ((4-(6-((6-acetyl-8-cyclopentyl-5-methyl-7-oxo-7,8-dihydropyrido[2,3-d]pyrimidin-2-yl)amino)pyridin-3-yl)piperazin-1-yl)sulfonyl)carbamate]	≥ 6.70	≥ 6.70	5.00 to 6.00
CC(=O)OCCOC(=O)NS(=O)(=O)N1CCN(c2ccc(Nc3ncc4c(C)c(C(C)=O)c(=O)n(C5CCCC5)c4n3)nc2)CC1 [Compound A9, 2-((((4-(6-((6-Acetyl-8-cyclopentyl-5-methyl-7-oxo-7,8-dihydropyrido[2,3-d]-pyrimidin-2-yl)amino)pyridin-3-yl)piperazin-1-yl)sulfonyl)carbamoyl)oxy)ethyl acetate]	≥ 6.70	≥ 6.70	5.00 to 6.00
CC(=O)c1c(C)c2cnc(Nc3ccc(N4CCN(S(=O)(=O)NC(=O)OC5CCC5)CC4)cn3)nc2n(C2CCCC2)c1=O [Compound A23, Cyclobutyl ((4-(6-((6-acetyl-8-cyclopentyl-5-methyl-7-oxo-7,8-dihydropyrido[2,3-d]pyrimidin-2-yl)amino)pyridin-3-yl)piperazin-1-yl)sulfonyl)carbamate]	< 6.30	≥ 6.70	5.00 to 6.00
CC(=O)c1c(C)c2cnc(Nc3ccc(N4CCN(S(N)(=O)=O)C[C@@H]4C)cn3)nc2n(C2CCCC2)c1=O [Compound A3, (S)-4-(6-((6-acetyl-8-cyclopentyl-5-methyl-7-oxo-7,8-dihydropyrido[2,3-d]-pyrimidin-2-yl)-amino)pyridin-3-yl)-3-methylpiperazine-1-sulfonamide]	≥ 6.70	≥ 6.70	5.00 to 6.00
CC(=O)c1c(C)c2cnc(Nc3ccc(N4CCN(S(=O)(=O)NC(=O)OC(C)(C)C)CC4)cn3)nc2n(C2CCCC2)c1=O [Compound A4, tert-butyl ((4-(6-((6-acetyl-8-cyclopentyl-5-methyl-7-oxo-7,8-dihydropyrido[2,3-d]pyrimidin-2-yl)amino)pyridin-3-yl)piperazin-1-yl)sulfonyl)carbamate]	≥ 6.70	≥ 6.70	< 5.00
CCOC(=O)NS(=O)(=O)N1CCN(c2ccc(Nc3ncc4c(C)c(C(C)=O)c(=O)n(C5CCCC5)c4n3)nc2)CC1 [Compound A25, Ethyl ((4-(6-((6-acetyl-8-cyclopentyl-5-methyl-7-oxo-7,8-dihydropyrido[2,3-d]-pyrimidin-2-yl)amino)pyridin-3-yl)piperazin-1-yl)sulfonyl)carbamate]	6.30 to 6.70	≥ 6.70	5.00 to 6.00
COCCOC(=O)NS(=O)(=O)N1CCN(c2ccc(Nc3ncc4c(C)c(C(C)=O)c(=O)n(C5CCCC5)c4n3)nc2)CC1 [Compound A8, 2-Methoxyethyl ((4-(6-((6-acetyl-8-cyclopentyl-5-methyl-7-oxo-7,8-dihydropyrido[2,3-d]pyrimidin-2-yl)amino)pyridin-3-yl)piperazin-1-yl)sulfonyl)carbamate]	6.30 to 6.70	≥ 6.70	< 5.00
